# Source: patent US20250145633A1, “SUBSTITUTED FURANOPYRIMIDINE COMPOUNDS AS PDE1 INHIBITORS” (Dart NeuroScience, LLC, priority 2017, published 2025)
# Target: human PDE1B enzyme (Homo sapiens (Human), UniProt Q01064)
# Test: IMAP TR-FRET PDE1B enzymatic assay
# Format: biochemical
# Conditions: negative log of half-maximal molar inhibitory concentration; 200 nM FAM-cAMP; values given as bins
# Outline: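 Full-length GST-tagged human PDE1B (250 pg/well) in IMAP BSA buffer with 10 U/ml calmodulin and 2.5 mM CaCl2; compound pre-incubated 5 min at room temperature, then 200 nM (final) FAM-cAMP for 30 min. IMAP binding reagent/Tb added, 1 h; TR-FRET 520/490 ratio read. IC50 from sigmoidal dose-response fit.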
row,Compound,PDE1b (pIC50)
1,"Cc1oc2ncnc(NC3(C)CC3)c2c1C(=O)N1CCc2c(ncnc2NCC2CC2)C1 [Example 343, 5-{4-[(Cyclopropylmethyl)amino]-5H,6H,7H,8H-pyrido[3,4-d]pyrimidine-7-carbonyl}-6-methyl-N-(1-methylcyclopropyl)furo[2,3-d]pyrimidin-4-amine]",>8
2,"Cc1oc2ncnc(NC3(C)CC3)c2c1C(=O)N1CC(c2ccc(F)cc2)C1 [Example 56, 5-[3-(4-Fluorophenyl)azetidine-1-carbonyl]-6-methyl-N-(1-methylcyclopropyl)furo[2,3-d]pyrimidin-4-amine]",>8
3,"Cc1oc2ncnc(NC3(C)CC3)c2c1C(=O)N1CCOC(c2ccc(F)cc2)C1 (stereo not shown) [Example 122, 5-[2-(4-Fluorophenyl)morpholine-4-carbonyl]-6-methyl-N-(1-methylcyclopropyl)furo[2,3-d]pyrimidin-4-amine]",>8
4,"Cc1cc(C)cc(C2CCN(C(=O)c3c(C)oc4ncnc(NC5(C)CC5)c34)C2)c1 (stereo not shown) [Example 397, 5-[3-(3,5-Dimethylphenyl)pyrrolidine-1-carbonyl]-6-methyl-N-(1-methylcyclopropyl)furo[2,3-d]pyrimidin-4-amine]",>8
5,"COc1cccc(C2CCN(C(=O)c3c(C)oc4ncnc(NC5(C)CC5)c34)C2)c1 (stereo not shown) [Example 361, 5-[3-(3-Methoxyphenyl)pyrrolidine-1-carbonyl]-6-methyl-N-(1-methylcyclopropyl)furo[2,3-d]pyrimidin-4-amine]",>8
6,"COc1ccccc1OCCNC(=O)c1c(C)oc2ncnc(NC3(C)CC3)c12 [Example 557, N-[2-(2-Methoxyphenoxy)ethyl]-6-methyl-4-[(1-methylcyclopropyl)amino]furo[2,3-d]pyrimidine-5-carboxamide]",>8

# Same assay, conditions: negative log of half-maximal molar inhibitory concentration; 200 nM FAM-cAMP; values given as bins; read-out: PDE1b (pIC50) (converted)
row,Compound,IC50 [nM]
1,"COc1ccc(CNC(=O)c2c(C)oc3ncnc(NC4(C)CC4)c23)nc1F [Example 678, N-[(6-Fluoro-5-methoxypyridin-2-yl)methyl]-6-methyl-4-[(1-methylcyclopropyl)amino]furo[2,3-d]pyrimidine-5-carboxamide]",10 to 100
2,"Cc1oc2ncnc(NC3(C)CC3)c2c1C(=O)NCc1cnn(-c2ccc(F)cc2)c1 [Example 571, N-{[1-(4-Fluorophenyl)-1H-pyrazol-4-yl]methyl}-6-methyl-4-[(1-methylcyclopropyl)amino]furo[2,3-d]pyrimidine-5-carboxamide]",10 to 100
3,"COCC1(Nc2ncnc3c2CCN(C(=O)c2c(C)oc4ncnc(NC5(C)CC5)c24)C3)CC1 [Example 795, 5-(4-{[1-(Methoxymethyl)cyclopropyl]amino}-5H,6H,7H,8H-pyrido[3,4-d]pyrimidine-7-carbonyl)-6-methyl-N-(1-methylcyclopropyl)furo[2,3-d]pyrimidin-4-amine]",10 to 100
4,"Cc1oc2ncnc(NC3(C)CC3)c2c1C(=O)N1CCN(c2ncc(F)cn2)C(C)C1 (stereo not shown) [Example 358, 5-[4-(5-Fluoropyrimidin-2-yl)-3-methylpiperazine-1-carbonyl]-6-methyl-N-(1-methylcyclopropyl)furo[2,3-d]pyrimidin-4-amine]",10 to 100
5,"Cc1nc(CNC(=O)c2c(C)oc3ncnc(NC4(C)CC4)c23)c(C)o1 [Example 112, N-[(Dimethyl-1,3-oxazol-4-yl)methyl]-6-methyl-4-[(1-methylcyclopropyl)amino]furo[2,3-d]pyrimidine-5-carboxamide]",10 to 100
6,"Cc1oc2ncnc(NC3(C)CC3)c2c1C(=O)NC(C)c1ccncn1 (stereo not shown) [Example 317, 6-Methyl-4-[(1-methylcyclopropyl)amino]-N-[1-(pyrimidin-4-yl)ethyl]furo[2,3-d]pyrimidine-5-carboxamide]",10 to 100
7,"Cc1oc2ncnc(NC3(C)CC3)c2c1C(=O)N1CCC(c2cccnc2)C1 (stereo not shown) [Example 71, 6-Methyl-N-(1-methylcyclopropyl)-5-[3-(pyridin-3-yl)pyrrolidine-1-carbonyl]furo[2,3-d]pyrimidin-4-amine]",10 to 100
8,"COc1ncc2c(n1)CCN(C(=O)c1c(C)oc3ncnc(NC4(C)CC4)c13)C2 [Example 45, 5-{2-Methoxy-5H,6H,7H,8H-pyrido[4,3-d]pyrimidine-6-carbonyl}-6-methyl-N-(1-methylcyclopropyl)furo[2,3-d]pyrimidin-4-amine]",10 to 100
9,"Cc1oc2ncnc(NC3(C)CC3)c2c1C(=O)N(C)c1cnn(C(C)C)c1 [Example 470, N,6-Dimethyl-4-[(1-methylcyclopropyl)amino]-N-[1-(propan-2-yl)-1H-pyrazol-4-yl]furo[2,3-d]pyrimidine-5-carboxamide]",100 to 1000
10,"Cc1oc2ncnc(NC3(C)CC3)c2c1C(=O)n1cc(-c2ccccc2)cn1 [Example 405, 6-Methyl-N-(1-methylcyclopropyl)-5-(4-phenyl-1H-pyrazole-1-carbonyl)furo[2,3-d]pyrimidin-4-amine]",100 to 1000
11,"Cc1oc2ncnc(NC3(C)CC3)c2c1C(=O)N1C[C@@H]2[C@H](C1)[C@H]2c1ccc(F)cc1 [Example 279, 5-[(1R,5S,6S)-6-(4-Fluorophenyl)-3-azabicyclo[3.1.0]hexane-3-carbonyl]-6-methyl-N-(1-methylcyclopropyl)furo[2,3-d]pyrimidin-4-amine]",10 to 100
12,"Cc1oc2ncnc(NC3(C)CC3)c2c1C(=O)N1CCC(c2ccc(OCCF)cc2)C1 (stereo not shown) [Example 797, 5-{3-[4-(2-Fluoroethoxy)phenyl]pyrrolidine-1-carbonyl}-6-methyl-N-(1-methylcyclopropyl)furo[2,3-d]pyrimidin-4-amine]",10 to 100
13,"COc1nc(C)nc2c1CN(C(=O)c1c(C)oc3ncnc(NC4(C)CC4)c13)C2 [Example 709, 5-{4-Methoxy-2-methyl-5H,6H,7H-pyrrolo[3,4-d]pyrimidine-6-carbonyl}-6-methyl-N-(1-methylcyclopropyl)furo[2,3-d]pyrimidin-4-amine]",100 to 1000
14,"Cc1oc2ncnc(NC3(C)CC3)c2c1C(=O)NC1CC1 [Example 124, N-Cyclopropyl-6-methyl-4-[(1-methylcyclopropyl)amino]furo[2,3-d]pyrimidine-5-carboxamide]",10 to 100
15,COc1cccc2c1OCCCN(C(=O)c1c(C)oc3ncnc(NC4(C)CC4)c13)C2 [Example 600],10 to 100
16,"Cc1oc2ncnc(NC3(C)CC3)c2c1C(=O)N1CCC(c2ncc(F)cn2)CC1 [Example 356, 5-[4-(5-Fluoropyrimidin-2-yl)piperidine-1-carbonyl]-6-methyl-N-(1-methylcyclopropyl)furo[2,3-d]pyrimidin-4-amine]",10 to 100
17,"Cc1oc2ncnc(NC3(C)CC3)c2c1C(=O)N1CCc2c(ncnc2N(C)C)C1 [Example 791, 5-[4-(Dimethylamino)-5H,6H,7H,8H-pyrido[3,4-d]pyrimidine-7-carbonyl]-6-methyl-N-(1-methylcyclopropyl)furo[2,3-d]pyrimidin-4-amine]",10 to 100
18,"Cc1oc2ncnc(NC3(C)CC3)c2c1C(=O)Nc1cnc(N2CCOCC2)nc1 [Example 657, 6-Methyl-4-[(1-methylcyclopropyl)amino]-N-[2-(morpholin-4-yl)pyrimidin-5-yl]furo[2,3-d]pyrimidine-5-carboxamide]",10 to 100
19,"Cc1oc2ncnc(NC3(C)CC3)c2c1C(=O)Nc1cn(C)cn1 [Example 435, 6-Methyl-N-(1-methyl-1H-imidazol-4-yl)-4-[(1-methylcyclopropyl)amino]furo[2,3-d]pyrimidine-5-carboxamide]",100 to 1000
20,"Cc1oc2ncnc(NC3(C)CC3)c2c1C(=O)NCC1(F)COC1 [Example 94, N-[(3-Fluorooxetan-3-yl)methyl]-6-methyl-4-[(1-methylcyclopropyl)amino]furo[2,3-d]pyrimidine-5-carboxamide]",100 to 1000
21,"COc1nccc(CNC(=O)c2c(C)oc3ncnc(NC4(C)CC4)c23)n1 [Example 449, N-[(2-Methoxypyrimidin-4-yl)methyl]-6-methyl-4-[(1-methylcyclopropyl)amino]furo[2,3-d]pyrimidine-5-carboxamide]",10 to 100
22,"Cc1oc2ncnc(NC3(C)CC3)c2c1C(=O)NC(C)(C)C [Example 138, N-tert-Butyl-6-methyl-4-[(1-methylcyclopropyl)amino]furo[2,3-d]pyrimidine-5-carboxamide]",10 to 100
23,"Cc1ncc2c(n1)CCN(C(=O)c1c(C)oc3ncnc(NC4(C)CC4)c13)C2 [Example 39, 6-Methyl-5-f{2-methyl-5H,6H,7H,8H-pyrido[4,3-d]pyrimidine-6-carbonyl}-N-(1-methylcyclopropyl)furo[2,3-d]pyrimidin-4-amine]",10 to 100
24,"Cc1ccnc(NC(=O)c2c(C)oc3ncnc(NC4(C)CC4)c23)c1 [Example 427, 6-Methyl-4-[(1-methylcyclopropyl)amino]-N-(4-methylpyridin-2-yl)furo[2,3-d]pyrimidine-5-carboxamide]",100 to 1000
25,"Cc1oc2ncnc(NC3(C)CC3)c2c1C(=O)N(C)Cc1ccccc1F [Example 249, N-[(2-Fluorophenyl)methyl]-N,6-dimethyl-4-[(1-methylcyclopropyl)amino]furo[2,3-d]pyrimidine-5-carboxamide]",10 to 100
26,"Cc1ncc(NC(=O)c2c(C)oc3ncnc(NC4(C)CC4)c23)nc1C [Example 441, N-(5,6-Dimethylpyrazin-2-yl)-6-methyl-4-[(1-methylcyclopropyl)amino]furo[2,3-d]pyrimidine-5-carboxamide]",10 to 100
27,"Cc1oc2ncnc(NC3(C)CC3)c2c1C(=O)N1CCC(O)(c2ccccc2)C1 (stereo not shown) [Example 347, 1-{6-Methyl-4-[(1-methylcyclopropyl)amino]furo[2,3-d]pyrimidine-5-carbonyl}-3-phenylpyrrolidin-3-ol]",10 to 100
28,"Cc1oc2ncnc(NC3(C)CC3)c2c1C(=O)Nc1ccnn1C [Example 174, 6-Methyl-N-(1-methyl-1H-pyrazol-5-yl)-4-[(1-methylcyclopropyl)amino]furo[2,3-d]pyrimidine-5-carboxamide]",100 to 1000
